Reference: publication PMC7343857, “New natural agonists of the transient receptor potential Ankyrin 1 (TRPA1) channel” (Scientific Reports, 2020)
Where two headings read alike, the source gives them in different places.

Target: T1, hTRPA1 (Homo sapiens, UniProt O75762)
T1 construct: gene TRPA1
Assay: ratiometric calcium imaging and whole-cell patch clamp in CHO cells with inducible hTRPA1; non-induced cells as control
Type: cell-based

T1 sequence (O75762 whole entry): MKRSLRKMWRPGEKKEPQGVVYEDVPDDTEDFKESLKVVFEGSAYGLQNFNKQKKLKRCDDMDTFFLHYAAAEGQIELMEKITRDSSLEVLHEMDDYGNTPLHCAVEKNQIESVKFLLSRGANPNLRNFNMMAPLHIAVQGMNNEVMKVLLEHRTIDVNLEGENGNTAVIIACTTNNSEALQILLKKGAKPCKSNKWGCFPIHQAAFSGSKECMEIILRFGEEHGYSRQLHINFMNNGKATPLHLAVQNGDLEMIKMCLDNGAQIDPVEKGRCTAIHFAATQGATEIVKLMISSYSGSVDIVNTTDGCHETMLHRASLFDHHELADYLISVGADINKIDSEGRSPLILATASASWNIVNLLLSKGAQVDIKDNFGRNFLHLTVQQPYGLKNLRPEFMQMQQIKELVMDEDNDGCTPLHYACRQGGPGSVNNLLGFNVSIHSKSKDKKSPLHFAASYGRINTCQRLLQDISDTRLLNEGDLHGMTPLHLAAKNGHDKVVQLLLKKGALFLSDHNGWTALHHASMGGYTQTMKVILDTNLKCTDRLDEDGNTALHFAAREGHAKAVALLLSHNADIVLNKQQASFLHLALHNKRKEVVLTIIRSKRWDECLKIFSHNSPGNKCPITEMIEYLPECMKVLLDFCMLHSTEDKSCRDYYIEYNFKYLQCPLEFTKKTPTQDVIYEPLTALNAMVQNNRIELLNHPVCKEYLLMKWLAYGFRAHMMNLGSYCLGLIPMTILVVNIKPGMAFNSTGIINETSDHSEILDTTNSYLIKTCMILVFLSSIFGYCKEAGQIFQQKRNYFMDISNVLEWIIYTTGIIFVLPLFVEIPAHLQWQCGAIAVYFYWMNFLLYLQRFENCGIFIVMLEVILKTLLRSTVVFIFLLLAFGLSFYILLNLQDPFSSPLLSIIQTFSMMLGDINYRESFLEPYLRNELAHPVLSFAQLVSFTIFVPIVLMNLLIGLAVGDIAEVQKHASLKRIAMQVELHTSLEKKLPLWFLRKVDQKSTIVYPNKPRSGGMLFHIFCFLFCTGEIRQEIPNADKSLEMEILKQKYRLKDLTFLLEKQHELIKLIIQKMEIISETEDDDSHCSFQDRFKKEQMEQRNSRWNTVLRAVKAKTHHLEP

For `CC(C)c1ccc(C=O)cc1` [cuminaldehyde], the EC50 (read-out: EC50) was 720 µM.
`C/C=C(\C)C=O` [tiglic aldehyde] gave an EC50 (read-out: EC50) of 1490 µM.
With `COc1ccc(C=O)cc1` [p-anisaldehyde] the EC50 was 910 µM.
